Tests used:
alpha-thrombin = alpha-thrombin (Homo sapiens, UniProt P00734); test: In vitro enzyme assay for specificity: thrombin amidolytic activity; format: biochemical; details: 0.25 nM enzyme, 30 min preincubation, pH 7.5, mean of at least two experiments
Experimental: The buffer used for all assays was HBSA (10 mM HEPES, pH 7.5, 150 mM sodium chloride, 0.1% bovine serum albumin). […] Following a 30-minute incubation at ambient temperature, 50 microliters of the substrate at the concentrations specified below, was added to the wells yielding a final total volume of 200 microliters. The initial velocity of chromogenic substrate hydrolysis was measured by the change in absorbance at 405 nm using a Thermo Max® Kinetic Microplate Reader over a 5 minute period in which less than 5% of the added substrate was utilized.
Thrombin catalytic activity was determined using the chromogenic substrate Pefachrome t-PA (CH3 SO2 -D-hexahydrotyrosine-glycyl-L-arginine-p-nitroanilide, obtained from Pentapharm Ltd.). The substrate was made up in deionized water followed by dilution in HBSA prior to the assay in which the final concentration was 300 micromolar (about 5-times Km). Purified human alpha-thrombin was obtained from Enzyme Research Laboratories, Inc. The enzyme was diluted into HBSA prior to the assay in which the final concentration was 0.25 nM.

rt-PA = target: T1, rt-PA (Homo sapiens, UniProt P00750); test: In vitro enzyme assay for specificity: recombinant tissue plasminogen activator; format: biochemical; details: 1.0 nM enzyme, 30 min preincubation, pH 7.5; mean of at least two experiments
T1 construct: purchased Genentech Inc
T1 sequence (P00750 36-562): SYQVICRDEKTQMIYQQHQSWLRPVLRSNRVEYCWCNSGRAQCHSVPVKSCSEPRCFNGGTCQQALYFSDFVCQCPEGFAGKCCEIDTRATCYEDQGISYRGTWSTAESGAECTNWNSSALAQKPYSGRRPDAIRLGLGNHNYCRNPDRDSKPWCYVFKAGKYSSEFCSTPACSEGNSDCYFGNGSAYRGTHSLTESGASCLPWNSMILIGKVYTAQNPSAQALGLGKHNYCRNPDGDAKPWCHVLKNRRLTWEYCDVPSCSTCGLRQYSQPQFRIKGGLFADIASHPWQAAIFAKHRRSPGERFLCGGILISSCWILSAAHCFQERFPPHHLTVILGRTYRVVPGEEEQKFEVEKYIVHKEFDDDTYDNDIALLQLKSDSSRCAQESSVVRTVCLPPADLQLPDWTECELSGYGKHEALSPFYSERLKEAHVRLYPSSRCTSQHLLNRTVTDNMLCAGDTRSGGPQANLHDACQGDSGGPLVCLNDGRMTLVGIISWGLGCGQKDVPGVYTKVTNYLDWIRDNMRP
Excerpt: Recombinant tissue plasminogen activator (rt-PA)

Plasmin = Plasmin (Homo sapiens, UniProt P00747); test: In vitro enzyme assay for specificity: plasmin; format: biochemical; details: 1.0 nM enzyme, 30 min preincubation, pH 7.5; mean of at least two experiments
Sequence of Plasmin (P00747 97-580 limits assumed): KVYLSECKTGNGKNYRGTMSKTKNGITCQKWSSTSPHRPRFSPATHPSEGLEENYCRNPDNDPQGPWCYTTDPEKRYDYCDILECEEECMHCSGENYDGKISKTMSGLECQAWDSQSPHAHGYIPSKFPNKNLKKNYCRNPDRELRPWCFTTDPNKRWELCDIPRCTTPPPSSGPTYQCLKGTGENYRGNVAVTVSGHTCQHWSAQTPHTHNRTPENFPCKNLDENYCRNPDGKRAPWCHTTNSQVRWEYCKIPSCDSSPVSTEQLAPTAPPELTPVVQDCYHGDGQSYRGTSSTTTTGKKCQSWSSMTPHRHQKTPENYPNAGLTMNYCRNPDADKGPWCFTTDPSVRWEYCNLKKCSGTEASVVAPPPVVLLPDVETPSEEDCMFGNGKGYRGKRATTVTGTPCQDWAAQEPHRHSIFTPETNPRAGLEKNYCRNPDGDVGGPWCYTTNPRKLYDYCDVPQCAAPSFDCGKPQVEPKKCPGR
Sequence of Plasmin (P00747 581-810 limits assumed): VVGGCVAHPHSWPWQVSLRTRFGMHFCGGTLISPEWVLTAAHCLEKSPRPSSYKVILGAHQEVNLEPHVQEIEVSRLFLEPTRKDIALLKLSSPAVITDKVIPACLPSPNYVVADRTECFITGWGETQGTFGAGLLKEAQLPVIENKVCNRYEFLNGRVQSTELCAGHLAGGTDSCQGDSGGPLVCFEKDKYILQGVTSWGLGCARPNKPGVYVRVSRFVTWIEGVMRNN
Experimental: Plasmin catalytic activity was determined using the chromogenic substrate, S-2251 [D-valyl-L-leucyl-L-lysine-p-nitroanilide], which was obtained from Kabi Diagnostica.

aPC = target: T2, aPC (Homo sapiens, UniProt P04070); test: In vitro enzyme assay for specificity: activated protein C; format: biochemical; details: 1.0 nM enzyme, 30 min preincubation, pH 7.5; mean of at least two experiments
T2 construct: purchased Hematologic Technologies, Inc
T2 sequence (P04070 43-197 limits assumed): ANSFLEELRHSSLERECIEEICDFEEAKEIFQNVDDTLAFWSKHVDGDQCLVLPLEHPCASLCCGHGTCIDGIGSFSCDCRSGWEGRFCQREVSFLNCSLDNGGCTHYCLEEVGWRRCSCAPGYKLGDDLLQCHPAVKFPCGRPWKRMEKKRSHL
T2 sequence (P04070 212-461 limits assumed): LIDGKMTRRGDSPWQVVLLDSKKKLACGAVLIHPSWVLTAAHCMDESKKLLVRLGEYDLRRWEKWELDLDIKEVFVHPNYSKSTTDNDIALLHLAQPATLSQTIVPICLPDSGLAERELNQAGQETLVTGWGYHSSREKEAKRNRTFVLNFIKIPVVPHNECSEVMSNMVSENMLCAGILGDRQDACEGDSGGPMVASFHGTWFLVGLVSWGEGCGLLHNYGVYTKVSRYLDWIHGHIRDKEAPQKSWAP
Experimental: Activated Protein C (aPC)
aPC catalytic activity was determined using the chromogenic substrate, Pefachrome PC (delta-carbobenzloxy-D-lysine-L-prolyl-L-arginine-p-nitroanilide), obtained from Pentapharm Ltd.). […] Purified human aPC was obtained from Hematologic Technologies, Inc. The enzyme was diluted into HBSA prior to assay in which the final concentration was 1.0 nM.

Chymotrypsin = Chymotrypsin (Bos taurus, UniProt P00766); test: In vitro enzyme assay for specificity: chymotrypsin; format: biochemical, bovine; details: 1.0 nM enzyme, 30 min preincubation, pH 7.5; mean of at least two experiments
Experimental: Chymotrypsin catalytic activity was determined using the chromogenic substrate, S-2586 (methoxy-succinyl-L-arginine-L-prolyl-L-tyrosyl-p-nitroanilide), which was obtained from Kabi Diagnostica. […] Purified (3×-crystallized;CDI) bovine pancreatic alpha-chymotrypsin was obtained from Worthington Biochemical Corp. The enzyme was reconstituted in deionized water and diluted into HBSA prior to assay in which the final concentration was 1.0 nM.

Trypsin = target: T3, Trypsin (Bos taurus, UniProt P00760); test: In vitro enzyme assay for specificity: trypsin; format: biochemical, bovine; details: 0.5 nM enzyme, 30 min preincubation, pH 7.5; mean of at least two experiments
T3 sequence (P00760 24-246): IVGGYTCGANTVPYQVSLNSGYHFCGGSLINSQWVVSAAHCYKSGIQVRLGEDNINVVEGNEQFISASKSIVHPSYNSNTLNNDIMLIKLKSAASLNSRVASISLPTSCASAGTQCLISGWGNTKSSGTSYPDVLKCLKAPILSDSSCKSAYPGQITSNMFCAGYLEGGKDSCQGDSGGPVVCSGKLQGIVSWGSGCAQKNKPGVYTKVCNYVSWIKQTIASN
Experimental: Trypsin catalytic activity was determined using the chromogenic substrate, S-2222 (benzoyl-L-isoleucine-L-glutamic acid- (gamma-methyl ester)-L-arginine-p-nitroanilide), which was obtained from Kabi Diagnostica. […] Purified (3×-crystallized; TRL3) bovine pancreatic trypsin was obtained from Worthington Biochemical Corp. The enzyme was reconstituted in deionized water and diluted into HBSA prior to assay in which the final concentration was 0.5 nM.

human plasma = test: Ex vivo anticoagulant effect, activated partial thromboplastin time (APTT) in human plasma; format: biochemical; details: citrated human plasma; control 29 seconds; mean of two independent determinations
Excerpt: (§1) The control clotting times (0 inhibitor) for rat and human plasma were 19 seconds and 29 seconds, respectively. The concentration of BzlSO2 -norVal(cyclo)-Gly-Ala(3-guanPip)-al which caused a doubling of the control clotting time in rat and human plasma was 12.7 micromolar and 9.1 micromolar, respectively. The data is the mean of two independent determinations.
(§2) Fresh frozen citrated pooled normal human plasma was obtained from George King Biomedical, Overland Park, KA. Pooled normal rat plasma was prepared from citrated whole blood collected from anesthetized rats using standard procedures. The plasma was flash frozen and stored at-80° C. until use. Measurements APTT was made using the Coag-A-Mate RA4 automated coagulometer (General Diagnostics, Organon Technica, Oklahoma City, Okla.) using the Automated APTT reagent (Organon Technica, Durham, N.C.) as the initiator of clotting according to the manufacturers instructions. The assay was conducted by making a series of dilution's of Isomer B in rapidly thawed plasma followed by adding 200 microliters to the wells of the assay carousel.

rat plasma = test: Ex vivo anticoagulant effect, activated partial thromboplastin time (APTT) in rat plasma; format: biochemical; details: citrated rat plasma; control 19 seconds; mean of two independent determinations
Excerpt: as §1, §2

[1] = test system: FeCl3-induced platelet-dependent arterial thrombosis; test: Rat model of FeCl3-induced platelet-dependent arterial thrombosis; format: in vivo; details: single i.v. bolus, n=6, saline 6/6
Excerpt: Kurz, K. D., Main, B. W., and Sandusky, G. E., Thromb. […] In this model a platelet-rich, occlusive thrombus is formed in a segment of the rat carotid artery treated locally with a fresh solution of FeCl3 absorbed to a piece of filter paper. The FeCl3 is thought to diffuse into the treated segment of artery and causes de-endothelialization of the affected vessel surface. […] The effect of a test compound on the incidence of occlusive thrombus formation following the application of the FeCl3 is monitored by ultrasonic flowtometry and is used as the primary end point. The use of flowtometry to measure carotid artery blood flow, is a modification of the original procedure in which thermal detection of clot formation was employed. Kurz, K. D., Main, B. W., and Sandusky, G. E., Thromb. […] The animals were prepared, anesthetized with Nembutal followed by the insertion of catheters for blood pressure monitoring, drug and anesthesia delivery. The left carotid artery was isolated by making a midline cervical incision followed by blunt dissection and spreading techniques to separate a 2 cm segment of the vessel from the carotid sheath. A silk suture is inserted under the proximal and distal ends of the isolated vessel to provide clearance for the placement of a ultrasonic flow probe (Transonic) around the proximal end of the vessel. The probe is then secured with a stationary arm. […] The test compound was administered as a single intravenous bolus at the doses outlined in Table 3 after placement of the flow probe and 5 minutes prior to the thrombogenic stimulus.

[2] = test system: trypsin, plasmin and kallikrein; details: Markwardt et al. 1972, inhibiting trypsin; cited from earlier work
[3] = literature report; cited from earlier work
[4] = Markwardt et al. 1972; cited from earlier work

Compound	IC50 (alpha-thrombin)	IC50 (Plasmin)	IC50 (aPC)	IC50 (Chymotrypsin)	IC50 (Trypsin)	other results
N=C(N)N1CCCC(C[C@@H](C=O)NC(=O)CN2CCC[C@H](NS(=O)(=O)Cc3ccccc3)C2=O)C1 (single isomer, unassigned) [A, benzylsulfonyl-norval(cyclo)-Gly-3-[3-piperidyl-(N-guanidino)]-L-alaninal]	28.8 nM	> 2500 nM	> 25000 nM	> 25000 nM	> 25000 nM	IC50 (rt-PA): > 25000 nM
N=C(N)N1CCCC(C[C@@H](C=O)NC(=O)CN2CCCC[C@H](NS(=O)(=O)Cc3ccccc3)C2=O)C1 (single isomer, unassigned) [C, N-(BnSO2-norLeu(cyclo)-Gly)-3-[3-piperidyl-(N-guanidino)]alaninal]		> 2500 nM	> 2500 nM	> 2500 nM	11200 nM	
N=C(N)N1CCCC(C[C@@H](C=O)NC(=O)CN2CCCC[C@H](NS(=O)(=O)Cc3ccccc3)C2=O)C1 (single isomer, unassigned) [D, N-(BnSO2-norLeu(cyclo)-Gly)-3-[3-piperidyl-(N-guanidino)]alaninal]		> 2500 nM	> 2500 nM	> 2500 nM	34400 nM	
N=C(N)N1CCCC(C[C@@H](C=O)NC(=O)CN2CCC[C@H](NS(=O)(=O)Cc3ccccc3)C2=O)C1 (single isomer, unassigned) [Isomer B, benzylsulfonyl-norval(cyclo)-Gly-3-[3-piperidyl-(N-guanidino)]-L-alaninal]	0.8 nM					concentration which caused a doubling of the control clotting time (APTT) (human plasma): 9.1 µM; concentration which caused a doubling of the control clotting time (APTT) (rat plasma): 12.7 µM; Incidence of Occlusion ([1]; 0.3 mg/kg): 6/6; Incidence of Occlusion ([1]; 1.0 mg/kg): 4/6; Incidence of Occlusion ([1]; 3.0 mg/kg, * p ≤ 0.05 from saline control by Fishers test): 0/6
N=C(N)c1ccc(CC(=O)C(=O)O)cc1 [APPA, 4-amidinophenylpyruvic acid]						selectivity of thrombin inhibition [2]: non-selective, inhibiting trypsin, plasmin and kallikrein; toxicity [3]: low toxicity; pharmacokinetics [4]: favourable pharmacokinetics

— patent US5932733A, “3-amino-2-oxo-1-piperidineacetic derivatives containing an arginine mimic as enzyme inhibitors” (Corvas International, Inc., priority 1995, dated 1999)
